Assay results as given in publication PMC9848300, “Discovery of novel enasidenib analogues targeting inhibition of mutant isocitrate dehydrogenase 2 as antileukaemic agents” (Journal of Enzyme Inhibition and Medicinal Chemistry, 2023).

Legend:
Assay type in all cases: cell-based
SK-MEL-28 = test: NCI 60 antitumor screening (single dose / five doses); details: Homo sapiens; SK-MEL-28 (melanoma), single dose 10 μM; read-out: Growth inhibition percentage (GI %)
T-47D = test: as above; details: Homo sapiens, T47D; T-47D (breast cancer), single dose 10 μM; read-out: Growth inhibition percentage (GI %)
HCT-116 = test: as above; details: Homo sapiens; HCT-116 (colon cancer), single dose 10 μM; read-out: Growth inhibition percentage (GI %)
SF-539 = test: as above; details: Homo sapiens; SF-539 (CNS cancer), single dose 10 μM; read-out: Growth inhibition percentage (GI %)
SK-MEL-2 = test: as above; details: Homo sapiens; SK-MEL-2 (melanoma), single dose 10 μM; read-out: Growth inhibition percentage (GI %)
SR = test: as above; details: Homo sapiens; SR (leukaemia), single dose 10 μM; read-out: Growth inhibition percentage (GI %)
DU-145 = test: as above; details: Homo sapiens; DU-145 (prostate cancer), single dose 10 μM; read-out: Growth inhibition percentage (GI %)
MDA-MB-435 = test: as above; details: Homo sapiens; MDA-MB-435 (melanoma), single dose 10 μM; read-out: Growth inhibition percentage (GI %)
[1] = tested on: 60 human subpanel cancer cell lines; test: NCI 60 antitumor screening, mean over the panel (single dose); details: mean over 60 cancer cell lines, single dose 10 μM
Experimental: (§1) Initially, the anticancer effects of target compounds have been assessed at a single (10 μM) dose. The obtained data have been reported as mean-graph of the percent growth (G%) of the treated cancer cells. Percentage growth inhibition (GI%) is calculated (100 − G%) and pronounced in Table 1. […] Target compounds in series (III) with manipulated linkers disclosed lower potency. Superiorly, eight s-triazine derivatives from the three series (6a, 6c, 6d, 7a, 7g, 7i, 7l, and 8b) have shown potent broad-spectrum anticancer activity against most the examined cell lines, whereas most of the remaining triazine derivatives, 20 derivatives, have exerted selective anti-proliferative actions towards certain cancer cell lines (Supplementary).
(§2) The antitumor screening was performed for 60 human cancer cell lines under the protocol of NCI (www.dtp.nci.nih.gov), the Drug Evaluation Branch, Bethesda, MD. All submitted compounds were nominated based on the degree of structural diversity and computer modelling techniques for evaluation of their anticancer activity. The screening process for antineoplastic activity passes through two successive levels, starting with the assessment of target compounds at a single dose of 10 μM against 60 cancer cell lines on nine types of human tumours. These experiments were done on a triplicate following. The output from the single‐dose screening was covered as a mean graph, and then, analysed by the COMPARE program. Finally, the compounds which disclosed subpanel cancer cell growth (G %) equal to or less than 10% in at least eight cancer cell lines get to pass the assessment against the 60 cell lines at five doses (0.01–100 μM). By using GraphPad Prism version 9.0 (Graphpad Software Inc., La Jolla, CA), GI50, TGI, as well as LC50 dose‐response parameters were computed and presented for each compound (Supplementary information)[55–57].

MALME-3M = test: NCI 60 antitumor screening (single dose / five doses); details: Homo sapiens; MALME-3M (melanoma), single dose 10 μM; read-out: Growth inhibition percentage (GI %)
NCI-H23 = test: NCI 60 antitumor screening (single dose); details: Homo sapiens; NCI-H23 (non-small cell lung cancer), single dose 10 μM; read-out: Growth inhibition percentage (GI %)
Experimental: as §1, §2

U251 = test: NCI 60 antitumor screening (single dose); details: Homo sapiens, U-251; U251 (CNS cancer), single dose 10 μM; read-out: Growth inhibition percentage (GI %)
Experimental: as §1, §2

KM 12 = test: NCI 60 antitumor screening (single dose); details: Homo sapiens, KM12; KM 12 (colon cancer), single dose 10 μM; read-out: Growth inhibition percentage (GI %)
Experimental: as §1, §2

CAKI-1 = test: NCI 60 antitumor screening (single dose); details: Homo sapiens; CAKI-1 (renal cancer), single dose 10 μM; read-out: Growth inhibition percentage (GI %)
Experimental: as §1, §2

OVCAR-5 = test: NCI 60 antitumor screening (single dose); details: Homo sapiens; OVCAR-5 (ovarian cancer), single dose 10 μM; read-out: Growth inhibition percentage (GI %)
Experimental: as §1, §2

SF-268 = test: NCI 60 antitumor screening (single dose); details: Homo sapiens; SF-268 (CNS cancer), single dose 10 μM; read-out: Growth inhibition percentage (GI %)
Experimental: as §1, §2

NCI-H322M = test: NCI 60 antitumor screening (single dose); details: Homo sapiens; NCI-H322M (non-small cell lung cancer), single dose 10 μM; read-out: Growth inhibition percentage (GI %)
Experimental: as §1, §2

NCI-H226 = test: NCI 60 antitumor screening (single dose); details: Homo sapiens; NCI-H226 (non-small cell lung cancer), single dose 10 μM; read-out: Growth inhibition percentage (GI %)
Experimental: as §1, §2

SK-OV-3 = test: NCI 60 antitumor screening (single dose); details: Homo sapiens; SK-OV-3 (ovarian cancer), single dose 10 μM; read-out: Growth inhibition percentage (GI %)
Experimental: as §1, §2

OVCAR-3 = test: NCI 60 antitumor screening (single dose); details: Homo sapiens; OVCAR-3 (ovarian cancer), single dose 10 μM; read-out: Growth inhibition percentage (GI %)
Experimental: as §1, §2

OVCAR-4 = test: NCI 60 antitumor screening (single dose); details: Homo sapiens; OVCAR-4 (ovarian cancer), single dose 10 μM; read-out: Growth inhibition percentage (GI %)
Experimental: as §1, §2

MCF7 = test: NCI 60 antitumor screening (single dose); details: Homo sapiens; MCF7 (breast cancer), single dose 10 μM; read-out: Growth inhibition percentage (GI %)
Experimental: as §1, §2

HS 578T = test: NCI 60 antitumor screening (single dose); details: Homo sapiens; HS 578T (breast cancer), single dose 10 μM; read-out: Growth inhibition percentage (GI %)
Experimental: as §1, §2

A549/ATCC = test: NCI 60 antitumor screening (single dose); details: Homo sapiens; A549/ATCC (non-small cell lung cancer), single dose 10 μM; read-out: Growth inhibition percentage (GI %)
Experimental: as §1, §2

SNB-19 = test: NCI 60 antitumor screening (single dose); details: Homo sapiens; SNB-19 (CNS cancer), single dose 10 μM; read-out: Growth inhibition percentage (GI %)
Experimental: as §1, §2

NCI-H522 = test: NCI 60 antitumor screening (single dose); details: Homo sapiens; NCI-H522 (non-small cell lung cancer), single dose 10 μM; read-out: Growth inhibition percentage (GI %)
Experimental: as §1, §2

M14 = test: NCI 60 antitumor screening (single dose); details: Homo sapiens; M14 (melanoma), single dose 10 μM; read-out: Growth inhibition percentage (GI %)
Experimental: as §1, §2

| SMILES | inhibition at 10 µM (SK-MEL-28) | inhibition at 10 µM (T-47D) | inhibition at 10 µM (HCT-116) | inhibition at 10 µM (SF-539) | inhibition at 10 µM (SK-MEL-2) | inhibition at 10 µM (SR) | inhibition at 10 µM (DU-145) | inhibition at 10 µM (MDA-MB-435) | inhibition at 10 µM (MALME-3M) | inhibition at 10 µM (NCI-H23) | inhibition at 10 µM (U251) | inhibition at 10 µM (KM 12) | inhibition at 10 µM (CAKI-1) | inhibition at 10 µM (OVCAR-5) | inhibition at 10 µM (SF-268) | inhibition at 10 µM (NCI-H322M) | inhibition at 10 µM (NCI-H226) | inhibition at 10 µM (SK-OV-3) | inhibition at 10 µM (OVCAR-3) | inhibition at 10 µM (OVCAR-4) | further results |
| --- | --- | --- | --- | --- | --- | --- | --- | --- | --- | --- | --- | --- | --- | --- | --- | --- | --- | --- | --- | --- | --- |
| Brc1cccc(/C=N/Nc2nc(N/N=C/c3cccc(Br)c3)nc(N3CCCCC3)n2)c1 [compound 7c, 2,4-Bis[(E)-2-[(3-Bromophenyl)methylidene]hydrazin-1-yl]-6-(piperidin-1-yl)-1,3,5-triazine] | 0.82% | 12.3% | 13.5% | -6.24% | -2.13% | 12.9% | -1.2% | 4.57% | 15.1% | -5.83% | 3.1% | -6.72% | 0.79% | -15.9% | -5.8% | -3.53% | 8.12% | -9% | 0.95% | 11.6% | Mean GI % [1]: 2.56%; inhibition at 10 µM (MCF7): 20.2%; inhibition at 10 µM (HS 578T): -21.2%; inhibition at 10 µM (A549/ATCC): 10.6%; inhibition at 10 µM (SNB-19): -2.24%; inhibition at 10 µM (NCI-H522): 8.55% |
| Fc1cccc(/C=N/Nc2nc(N/N=C/c3cccc(F)c3)nc(N3CCCCC3)n2)c1 [compound 7e, 2,4-Bis[(E)-2-[(3-Fluorophenyl)methylidene]hydrazin-1-yl]-6-(piperidin-1-yl)-1,3,5-triazine] | 9.32% | 30.6% | 9.65% | -3.16% | 0.55% | 31.9% | 2.92% | 8.23% | -0.5% | 9.62% | 5.46% | 17.9% | 9.66% | -8.1% | 0.36% | -8.36% | 17.9% | -14.6% | 10.6% | 13.7% | Mean GI % [1]: 10.18%; inhibition at 10 µM (MCF7): 26.7%; inhibition at 10 µM (HS 578T): -13.2%; inhibition at 10 µM (A549/ATCC): 10.6%; inhibition at 10 µM (SNB-19): 3.96%; inhibition at 10 µM (NCI-H522): 8.08% |
| Brc1ccccc1/C=N/Nc1nc(N/N=C/c2ccccc2Br)nc(N2CCOCC2)n1 [compound 6b, 2,4-Bis[(E)-2-[(2-bromophenyl)methylidene]hydrazin-1-yl]-6-(morpholin-4-yl)-1,3,5-triazine] | 0.72% | 21% | 2.53% | -4.64% | 3.71% | 36.1% | 1.72% | 2.29% | -42.9% | -4.52% | 3.53% | 10.9% | -8.66% | -11.2% | -2.5% | 3.22% | 4.87% | -13.9% | 14.8% | 3.79% | Mean GI % [1]: 7.16%; inhibition at 10 µM (MCF7): 14.8%; inhibition at 10 µM (HS 578T): -14.4%; inhibition at 10 µM (A549/ATCC): 2.89%; inhibition at 10 µM (SNB-19): -1.04%; inhibition at 10 µM (NCI-H522): 13.4% |
| O=C(NNc1nc(NNC(=O)c2ccccc2)nc(N2CCOCC2)n1)c1ccccc1 [compound 8d, N'-[4-(morpholin-4-yl)-6-(phenylhydrazido)-1,3,5-triazin-2-yl]benzohydrazide] | -19.5% | -10.8% | -3.34% | 2.56% | -13.4% | 2.07% | -7.98% | -2.63% | -7.11% | 5.69% | -0.3% | -5.4% | 3.15% | -4.08% | -1.5% | 4.42% | 4.42% | -18.5% | -5.45% | -10.6% | inhibition at 10 µM (M14): -0.8%; inhibition at 10 µM (MCF7): 0.71%; inhibition at 10 µM (HS 578T): -6.14%; inhibition at 10 µM (A549/ATCC): 1.66%; inhibition at 10 µM (SNB-19): 3.32%; inhibition at 10 µM (NCI-H522): -2.83% |
| COC(=O)C(Cc1ccccc1)Nc1nc(NC(Cc2ccccc2)C(=O)OC)nc(N2CCOCC2)n1 (stereo not drawn) [compound 8c, Methyl 2-({4-[(1-methoxy-1-oxo-3-phenylpropan-2-yl)amino]-6-(morpholin-4-yl)-1,3,5-triazin-2-yl}amino)-3-phenylpropanoate] | -8.72% | -0.53% | 0.81% | 1.99% | -11% | -0.37% | -11.6% | -4.67% | -4.87% | -6.51% | -5.23% | 0.3% | 13.2% | -6.25% | -2.56% | 2.57% | -1.61% | -2.71% | -11.1% | -6.53% | inhibition at 10 µM (MCF7): 2.21%; inhibition at 10 µM (HS 578T): -1.3%; inhibition at 10 µM (A549/ATCC): -8.33%; inhibition at 10 µM (SNB-19): -3.58%; inhibition at 10 µM (NCI-H522): 9.02% |
